From patent US20240350458A1, “14-3-3 PROTEIN MODULATORS AS ANTITUMOR AGENTS” (priority 2021, published 2024)
Entries after “also recorded” stand apart in the source; their conditions may differ.

Key:
14-3-3 = experiment: DARTS in U937 cells; type: binding; settings: 50 nM, 2 h, MS and western blot
Method: FIG. 4 represents DARTS experiments results as reported in example 6: Proteins obtained from U937 cells incubated with 50 nM FC86 or with the medium for 2 h underwent subtilisin-catalyzed digestion.
Current protocols in chemical biology 2011, 3:163-180]. […] The same DARTS experiments were also performed by incubating glioblastoma cell lines (U87MG) with subtoxic amounts of FC86 and data collected confirmed the 14-3-3 as target protein. (FIG. 5).
The identification of putative targets of FC86 was achieved by Drug Affinity Responsive Target Stability (DARTS) experiments. Cancer cells were incubated with a sub-toxic concentration (50 nM for U937 and 5 μM for U87MG) of FC86 for 2 h or with the medium (control cells). After the treatments, treated and control cells were collected and whole protein extracts were prepared by lysing cells in 20 mM Tris-HCl (pH 7.5), 150 mM NaCl, 1 mM EDTA, 1 mM EGTA, 1% NP-40, 1% sodium deoxycholate, 2.5 mM sodium pyrophosphate, 1 mM β-glycerophosphate, 1 mM Na3VO4, 1 μg/ml leupeptin. Protein concentration was determined by the Bradford protein assay using bovine serum albumin as standard. […] Parameters sets were: trypsin cleavage; carbamidomethylation of cysteine as a fixed modification and methionine oxidation as a variable modification; a maximum of two missed cleavages; false discovery rate (FDR), calculated by searching the decoy database, 0.05. […]

[1] = system: human lymphoma cell line TMD8; experiment: Lymphoma xenograft in Nod-Scid mice; type: in vivo; settings: 100 mg/kg oral gavage once daily, five times per week
Method: FIG. 6 reports ADME-TOX profiling of compounds FC91, FC85, and FC86 as explained in example 7 FIG. 7 reports the inhibition of the compound FC86 on tumor growth in xenograft models of lymphoma (TMD8 engrafted in NOD-Scid mice); vehicle group (blue line), n=9 mice; FC86 treated group (red line), n=9 mice (Example 8). Tumor volume expressed in cubic mm plus SEM (Student t-test); p<0.01.
To this purpose, the compound was administered by oral gavage to Nod-Scid mice engrafted with the human lymphoma cell line TMD8 (15 millions of cells in 100 uL PBS/mouse). […] Body conditions were not affected by the treatments.

410 human kinases = experiment: ProQinase kinase profiling; type: biochemical; settings: at 1 and 0.1 μM
NCI-H82 = experiment: MTT proliferation assay, SCLC; type: cell-based; settings: Homo sapiens
Method: (§1) The antiproliferative activity was assessed by MTT proliferation assay (Table III) The anticancer activity was also investigated in a rare and lethal cancer (i.e. anaplastic thyroid cancer) by the use of three ATC-derived cell lines (Sw, FRO, 8505c). Again, the IC50 value after 72 h exposure was in the range of 10 to 50 nM. The same trend was also observed in four melanoma cell lines A2058, M14 (genotype BRAFV600E), SKMEL 197 e MEWO (genotype BRAF wild-type).
(§2) Table III IC50 expressed in μM and Emax (at 30 μM) for FC86 after 72 h exposure, were calculated by MTT assay

NCI-H69 = experiment: MTT proliferation assay, SCLC; type: cell-based; settings: Homo sapiens
Method: as §1, §2

HBL1 = experiment: MTT proliferation assay, B-cell lymphoma cell line; type: cell-based; settings: HBL1, 72 h of drug incubation
Method: (§3) All the above compounds were tested in vitro for their anticancer activity against a panel of eight B-cell lymphoma cell lines by MTT proliferation assay. The tested cell lines belonging to mantle cell lymphoma (MCL: REC1, Z138), activated B-cell diffuse large B-cell lymphoma (ABC-DLBCL: R11, HBL1, U2932, TMD8), germinal center B-cell diffuse large B-cell lymphoma (GCB-DLBCL: SU-DHL-10, FARAGE) subtypes. In overall, MCL cell lines present Cyclin D1 overexpression, while ABC- and GCB-DLBCL's proliferation is BCR and BCL6/HDACs driven, respectively. At the RNA level, all tested lymphoma cell lines were characterized by an overexpression of 14-3-3 zeta as reported for B-cell lymphomas resistant to chemotherapeutic regimen.

REC1 = experiment: MTT proliferation assay, B-cell lymphoma cell line; type: cell-based; settings: Homo sapiens; REC1, 72 h of drug incubation
Method: as §3

FARAGE = experiment: MTT proliferation assay, B-cell lymphoma cell line; type: cell-based; settings: 72 h of drug incubation
Method: as §3

SUDHL10 = experiment: MTT proliferation assay, B-cell lymphoma cell line; type: cell-based; settings: Homo sapiens, SU-DHL10; SUDHL10, 72 h of drug incubation
Method: as §3

RI1 = experiment: MTT proliferation assay, B-cell lymphoma cell line; type: cell-based; settings: Ri-1; RI1, 72 h of drug incubation
Method: as §3

U2932 = experiment: MTT proliferation assay, B-cell lymphoma cell line; type: cell-based; settings: Homo sapiens; U2932, 72 h of drug incubation
Method: as §3

Z138 = experiment: MTT proliferation assay, B-cell lymphoma cell line; type: cell-based; settings: Homo sapiens, Z-138; Z138, 72 h of drug incubation
Method: as §3

[2] = system: ATC-derived cell lines (Sw, FRO, 8505c); experiment: MTT proliferation assay, three ATC-derived cell lines; type: cell-based; settings: Homo sapiens; three ATC-derived cell lines (Sw, FRO, 8505c), 72 h; read-out: IC50 value after 72 h exposure
Method: as §1

In the case of `Cc1ccc(S(=O)(=O)Nc2ccc3c(c2)/C(=C/c2cccs2)C(=O)N3)cc1` [FC86, N-[(3Z)-2-oxo-3-(thiophene-2-ylmethylidene)-2,3-dihydro-1H-indol-5-yl]-4-methylbenzenesulfonamide], the “resistance of 14-3-3 to subtilisin proteolysis (DARTS)” value (14-3-3) is reported as “significant protection from proteolysis; also recorded: significant increment of resistance to proteolysis”, the body conditions [1] is reported as “not affected” and the “tumor size vs vehicle at the end of the study” value [1] is reported as “two times smaller”. The “tumor growth inhibition” value ([1]; p<0.01) was “significantly inhibit tumor growth”, the “activity against 410 human kinases” value (410 human kinases) was “lack of activity against any of them” and the Emax at 30 µM (NCI-H82; SCLC NCI-H82, 30 μM, 72 h) was 55%. For the same compound, the IC50 (NCI-H82; SCLC NCI-H82, 72 h exposure) was 3 µM, the Emax at 30 µM (NCI-H69; SCLC NCI-H69, 30 μM, 72 h) was 80% and the IC50 (NCI-H69; SCLC NCI-H69, 72 h exposure) was 1.4 µM. It also gave an IC50 (HBL1) of 0.025 µM, an IC50 (REC1) of 0.01 µM and an IC50 (FARAGE) of 0.015 µM. It also gave an IC50 (SUDHL10) of 0.025 µM, an IC50 (RI1) of 0.025 µM and an IC50 (U2932) of 0.02 µM. The IC50 (Z138) was 0.025 µM and the IC50 [2] was 0.01 to 0.05 µM.
